Experimental findings from patent US6936630B2, “Substituted 1-aryl-3-heteroaryl-thioureas and substituted 1-aryl-3-heteroaryl-isothioureas as antiatherosclerotic agents” (Wyeth, priority 1997, dated 2005) are described below.

One series has as its system serum HDL cholesterol. As to the kind of experiment: in vivo test procedure measuring elevation of HDL cholesterol levels in cholesterol/cholic acid-fed rats. More on the design: species or system Male Sprague-Dawley rats. Conditions: rats fed diet with 0.25% cholic acid and 1.0% cholesterol, 100 mg/kg/day in diet for 8 days, serum HDL cholesterol by FPLC; for change in vivo at 100 mg/kg/day: Rattus norvegicus, feed or water, 192 h, read-out: HDL Cholesterol Level Increase (%). The method, then: Representative compounds according to the present invention were evaluated in an in vivo standard pharmacological test procedure which measured the ability of the compounds to elevate HDL cholesterol levels. The following describes the procedure used and results obtained. Male Sprague-Dawley rats weighing 200-225 g were housed two per cage and fed Purina Rodent Chow Special Mix 5001-S supplemented with 0.25% cholic acid and 1.0% cholesterol and water ad libitum for 8 days. Each test substance was administered to a group of six rats fed the same diet with the test diet mixed in as 0.005-0.1% of the total diet. Body weight and food consumption were recorded prior to diet administration and at termination. The test substances were administered at a dosage of 100 mg/kg/day.
At termination, blood was collected from anesthetized rats and the serum was separated by centrifugation. Total serum cholesterol was assayed using the Sigma Diagnostics enzymatic kit for the determination of cholesterol, Procedure No. 352, modified for use with ninety-six well microtiter plates. After reconstitution with water the reagent contains 300 U/l cholesterol oxidase, 100 U/l cholesterol esterase, 1000 U/l horse radish peroxidase, 0.3 mmoles/l 4-aminoantipyrine and 30.0 mmoles/l p-hydroxybenzene sulfonate in a pH 6.5 buffer. In the reaction, cholesterol was oxidized to produce hydrogen peroxide which was used to form a quinoneimine dye. The concentration of dye formed was measured spectrophotometrically by absorbance at 490 nm after incubation at 25° C. for 30 minutes. The concentration of cholesterol was determined for each serum sample relative to a commercial standard from Sigma.
HDL cholesterol concentrations in serum were determined by separation of lipoprotein classes by fast protein liquid chromatography (FPLC) by a modification of the method of Kieft et al., J. Lipid Res., 32 (1991), 859-866. Using this methodology, […] of serum was injected onto Superose 12 and Superose 6 (available from Pharmacia), in series, with a column buffer of 0.05 M Tris (2-amino-2-hydroxymethyl-1,3-propanediol) and 0.15 M sodium chloride at a flow rate of 0.5 mL/min. The eluted sample was mixed on line with Boehringer-Mannheim cholesterol reagent pumped at 0.2 mL/min. The combined eluents were mixed and incubated on line through a knitted coil (available from Applied Biosciences) maintained at a temperature of 45° C. The eluent was monitored by measuring absorbance at 490 nm and gave a continous absorbance signal proportional to the cholesterol concentration. The relative concentration for each lipoprotein class was calculated as the percent of total absorbance. HDL cholesterol concentration in serum, was calculated as the percent of total cholesterol as determined by FPLC multiplied by the total serum cholesterol concentration.
Test compounds were administered at a dose of 100 mg/kg for 8 days.

One may read the melting point as the temperature, or range, at which the solid turns liquid. Consider `Cc1ccc(Cl)cc1NC(=S)Nc1nccs1` [Example 1, 1-(5-Chloro-2-methyl-phenyl)-3-(thiazol-2-yl)-thiourea], for which the melting point lay in the range of 197 to 198 °C. The change in vivo at 100 mg/kg/day in the series with serum HDL cholesterol was determined as 65%.
The like results for `Cc1ccc(Cl)cc1NC(=S)Nc1cc[nH]n1` [Example 7, 1-(5-Chloro-2-methyl-phenyl)-3-(1H-pyrazol-3-yl)-thiourea] were, in that order, 221 to 222 °C and 97%.
The like results for `Cc1nc2cc(NC(=S)Nc3cc(Cl)ccc3C)ccc2s1` [Example 13, 1-(5-Chloro-2-methyl-phenyl)-3-(2-methyl-benzothiazol-5-yl)-thiourea] were, in that order, 173 to 174 °C and 36%.
Take `Cc1cc(Cl)ccc1NC(=S)Nc1c(C)nn(C)c1C` [Example 16, 1-(4-Chloro-2-methyl-phenyl)-3-(1,3,5-trimethyl-1H-pyrazol-4-yl)-thiourea 0.12 solvate with acetic acid ethyl ester]: the “HDL Cholesterol Level Increase (%)” value in the series with serum HDL cholesterol is 104%.
The molecule `CS/C(=N/c1c(C)nn(C)c1C)Nc1cc(Cl)ccc1C` [Example 20, (E)-1-(5-Chloro-2-methyl-phenyl)-2-methyl-3-(1,3,5-trimethyl-1H-pyrazol-4-yl)-isothiourea] showed a melting point of 134 to 135 °C. Besides, in the series on serum HDL cholesterol, the change in vivo at 100 mg/kg/day came out at 35%.
With `Cc1ccc(Cl)cc1NC(=S)Nc1nc2ccc3ccccc3c2s1` [Example 3, 1-(5-Chloro-2-methyl-phenyl)-3-(naphtho[2,1-d]thiazol-2-yl)-thiourea], the change in vivo at 100 mg/kg/day in the series on serum HDL cholesterol stood at 0.3%.
As to `Cc1nnc(NC(=S)Nc2cc(Cl)ccc2C)s1` [Example 5, 1-(5-Chloro-2-methyl-phenyl)-3-(5-methyl-[1,3,4]thiadiazol-2-yl)-thiourea], in the series on serum HDL cholesterol, the change in vivo at 100 mg/kg/day was found to be 69%.
On the same count and under the same terms, as for `CCc1nnc(NC(=S)Nc2cc(Cl)ccc2C)s1` [Example 14, 1-(5-Chloro-2-methyl-phenyl)-3-(5-ethyl-[1,3,4]thiadiazol-2-yl)-thiourea], the figure is 90%.
`Cc1coc(NC(=S)Nc2ccc(Cl)cc2C)n1` [Example 17, 1-(4-Chloro-2-methyl-phenyl)-3-(4-methyl-oxazol-2-yl)-thiourea]: the melting point was 214 °C (dec.). Moreover, the change in vivo at 100 mg/kg/day in the series with serum HDL cholesterol came to 134%.
Consider `Cc1coc(NC(=S)Nc2c(C)cccc2Cl)n1` [Example 18, 1-(2-Chloro-6-methyl-phenyl)-3-(4-methyl-oxazol-2-yl)-thiourea], for which the melting point was 222 °C (dec.). Also, the change in vivo at 100 mg/kg/day in the series with serum HDL cholesterol was determined as 193%.
As to `Cc1ccc(Cl)cc1NC(=S)Nc1nc2ccccc2s1` [Example 2, 1-(Benzothiazol-2-yl)-3-(5-chloro-2-methyl-phenyl)-thiourea], in the series on serum HDL cholesterol, the change in vivo at 100 mg/kg/day came to 6%.
As to `CCN(C(=S)Nc1cc(Cl)ccc1C)c1c(C)nn(C)c1C` [Example 19, 3-(5-Chloro-2-methyl-phenyl)-1-ethyl-1-(1,3,5-trimethyl-1H-pyrazol-4-yl)-thiourea], the melting point was 144 to 145 °C. In the series on serum HDL cholesterol, the change in vivo at 100 mg/kg/day amounted to 79%.
On to `Cc1ccc(Cl)cc1NC(=S)Nc1nc(C)c(C)s1` [Example 10, 1-(5-Chloro-2-methyl-phenyl)-3-(4,5-dimethyl-thiazol-2-yl)-thiourea], for which the melting point lay within 188 to 189 °C. Also, in the series with serum HDL cholesterol, the change in vivo at 100 mg/kg/day came out at 41%.
As to `CCN(C(=Nc1cc(Cl)ccc1C)SC)c1c(C)nn(C)c1C.Cl` [Example 21, 3-(5-Chloro-2-methyl-phenyl)-1-ethyl-2-methyl-1-(1,3,5-trimethyl-1H-pyrazol-4-yl)-isothiourea 1:1 salt with hydrochloric acid], the “HDL Cholesterol Level Increase (%)” value in the series on serum HDL cholesterol is listed as 29%.
`Cc1csc(NC(=S)Nc2cc(Cl)ccc2C)n1` [Example 9, 1-(5-Chloro-2-methyl-phenyl)-3-(4-methyl-thiazol-2-yl)-thiourea] gave a melting point of 188 °C. In addition, in the series on serum HDL cholesterol, the change in vivo at 100 mg/kg/day was 79%.
The like results for `Cc1ccc(Cl)cc1NC(=S)Nc1ccn(C)n1` [Example 6, 1-(5-Chloro-2-methyl-phenyl)-3-(1-methyl-1H-pyrazol-3-yl)-thiourea] were, in that order, 217 to 218 °C and -11%.
The matching figures for `Cc1coc(NC(=S)Nc2cc(Cl)ccc2C)n1` [Example 4, 1-(5-Chloro-2-methyl-phenyl)-3-(4-methyl-oxazol-2-yl)-thiourea]: 207 to 208 °C and 158%.
The matching figures for `Cc1cccc(Cl)c1NC(=S)Nc1c(C)nn(C)c1C` [Example 15, 1-(2-Chloro-6-methyl-phenyl)-3-(1,3,5-trimethyl-1H-pyrazol-4-yl)-thiourea]: 201 to 202 °C and 58%.
Take `CCOC(=O)Cc1csc(NC(=S)Nc2cc(Cl)ccc2C)n1` [Example 11, {2-[3-(5-Chloro-2-methyl-phenyl)-thioureido]-thiazol-4-yl}-acetic acid ethyl ester]: the melting point is 177 to 179 °C. In addition, the change in vivo at 100 mg/kg/day in the series with serum HDL cholesterol is 2%.
The like results for `Cc1ccc(Cl)cc1NC(=S)Nc1c(C)nn(C)c1C` [Example 8, 1-(5-Chloro-2-methyl-phenyl)-3-(1,3,5-trimethyl-1H-pyrazol-4-yl)-thiourea] were, in that order, 176 to 177 °C and 110%.
As for `Cc1cc(NC(=S)Nc2cc(Cl)ccc2C)sn1` [Example 12, 1-(5-Chloro-2-methyl-phenyl)-3-(3-methyl-isothiazol-5-yl)-thiourea], the melting point was 187 to 188 °C (dec.). Moreover, in the series on serum HDL cholesterol, the change in vivo at 100 mg/kg/day stood at 134%.
